Laboratory results reported in ChEMBL document CHEMBL1201862, “PubChem BioAssay data set” (2004).
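Following 48 hours of exposure in 96-well plates, responses at five concentrations were used to interpolate endpoints linearly. GI50: concentration for 50% inhibition of growth.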 Activity calls are given as the source filed them. Cut-off read from the data, not from the text of the source: active = GI50 up to about 1.1 µM and inactive = higher.

Key:
Test in all cases: NCI tumour cell line growth inhibition, 48 h
PC-3 = test system: PC-3
SK-MEL-28 = test system: SK-MEL-28
MDA-N = test system: MDA-N
U-251 = test system: U-251
M14 = test system: M14
IGROV-1 = test system: IGROV-1
A498 = test system: A498
NCI/ADR-RES = test system: NCI/ADR-RES
MDA-MB-231 = test system: MDA-MB-231
KM12 = test system: KM12
SR = test system: SR
NCI-H226 = test system: NCI-H226
SN12C = test system: SN12C
EKVX = test system: EKVX
DU-145 = test system: DU-145
SF-539 = test system: SF-539
SW-620 = test system: SW-620
HCC 2998 = test system: HCC 2998
TK-10 = test system: TK-10
UO-31 = test system: UO-31

Measured: GI50

COC(=O)c1cc2/c(=N/O)c3ccccc3sc2o1
inactive: PC-3 > 100 µM | SK-MEL-28 > 100 µM | MDA-N > 100 µM | U-251 > 100 µM | M14 > 100 µM | IGROV-1 > 100 µM | A498 > 100 µM | NCI/ADR-RES > 100 µM | MDA-MB-231 > 100 µM | KM12 > 100 µM | SR > 100 µM | NCI-H226 > 100 µM | SN12C > 100 µM | EKVX > 100 µM | DU-145 > 100 µM | SF-539 > 100 µM | SW-620 > 100 µM | HCC 2998 > 100 µM | TK-10 > 100 µM

Nc1nc(S)nc2snnc12
inactive: PC-3 > 100 µM | SK-MEL-28 > 100 µM | MDA-N > 100 µM | U-251 > 10 µM | IGROV-1 > 100 µM | A498 > 100 µM | UO-31 > 100 µM | NCI/ADR-RES > 100 µM | MDA-MB-231 > 100 µM | KM12 > 100 µM | SR > 100 µM | NCI-H226 > 100 µM | SN12C > 100 µM | DU-145 > 100 µM | SF-539 > 100 µM | SW-620 > 100 µM | HCC 2998 > 100 µM | TK-10 > 100 µM

CC(C)=CCNc1ncnc2c1ncn2CCC#N
inactive: PC-3 > 100 µM | SK-MEL-28 > 100 µM | MDA-N > 100 µM | U-251 > 100 µM | M14 > 100 µM | IGROV-1 > 100 µM | A498 > 100 µM | UO-31 > 100 µM | NCI/ADR-RES > 100 µM | MDA-MB-231 > 100 µM | KM12 > 100 µM | SR > 100 µM | NCI-H226 > 100 µM | SN12C > 100 µM | DU-145 > 100 µM | SF-539 > 100 µM | SW-620 > 100 µM | HCC 2998 > 100 µM | TK-10 > 100 µM

O=C1NCC2(CCNCC2)N1c1ccccc1
inactive: PC-3 > 100 µM | SK-MEL-28 > 100 µM | MDA-N > 100 µM | U-251 > 100 µM | M14 > 100 µM | IGROV-1 > 100 µM | A498 > 100 µM | NCI/ADR-RES > 100 µM | MDA-MB-231 > 100 µM | KM12 > 100 µM | SR > 100 µM | NCI-H226 > 100 µM | SN12C > 100 µM | EKVX > 100 µM | DU-145 > 100 µM | SF-539 > 100 µM | SW-620 > 100 µM | HCC 2998 > 100 µM | TK-10 > 100 µM
